Square brackets hold non-standard residues; d marks the D form. Peptide text beside a SMILES is read from it. Orn = NCCC[C@H](N)C(=O)O
Legend:
[1] = Concentration for doublingAPTT clotting times of human plasma; format: functional, cell-free
[2] = Anticoagulant activity of compound in respect to APTT in human poor platelet plasma (PPP) at 705.25 nM concentration was measured by the Amelung coagulometer KC4A apparatus; format: functional
[3] = Anticoagulant activity of compound in respect to APTT in human poor platelet plasma (PPP) at 881.56 nM concentration was measured by the Amelung coagulometer KC4A apparatus; format: functional
[4] = Anticoagulant activity of compound in respect to APTT in human poor platelet plasma (PPP) at 528.94 nM concentration was measured by the Amelung coagulometer KC4A apparatus; format: functional
[5] = Anticoagulant activity of compound in respect to APTT in human poor platelet plasma (PPP) at 771 nM concentration was measured by the Amelung coagulometer KC4A apparatus; format: functional
[6] = Anticoagulant activity of compound in respect to APTT in human poor platelet plasma (PPP) at 1156.6 nM concentration was measured by the Amelung coagulometer KC4A apparatus; format: functional
[7] = Anticoagulant activity of compound in respect to APTT in human poor platelet plasma (PPP) at 211 nM concentration was measured by the Amelung coagulometer KC4A apparatus; format: functional
[8] = Anticoagulant activity of compound in respect to APTT in human poor platelet plasma (PPP) at 1077.7 nM concentration was measured by the Amelung coagulometer KC4A apparatus; format: functional
[9] = Anticoagulant activity of compound in respect to APTT in human poor platelet plasma (PPP) at 646.61 nM concentration was measured by the Amelung coagulometer KC4A apparatus; format: functional
[10] = Anticoagulant activity of compound in respect to APTT in human poor platelet plasma (PPP) at 1117.95 nM concentration was measured by the Amelung coagulometer KC4A apparatus; format: functional
[11] = Anticoagulant activity of compound in respect to APTT in human poor platelet plasma (PPP) at 290 nM concentration was measured by the Amelung coagulometer KC4A apparatus; format: functional
[12] = Anticoagulant activity of compound in respect to APTT in human poor platelet plasma (PPP) at 894 nM concentration was measured by the Amelung coagulometer KC4A apparatus; format: functional
[13] = Anticoagulant activity of compound in respect to APTT in human poor platelet plasma (PPP) at 1043.42 nM concentration was measured by the Amelung coagulometer KC4A apparatus; format: functional
[14] = Anticoagulant activity of compound in respect to APTT in human poor platelet plasma (PPP) at 1192 nM concentration was measured by the Amelung coagulometer KC4A apparatus; format: functional
[15] = Anticoagulant activity of compound in respect to APTT in human poor platelet plasma (PPP) at 2235.9 nM concentration was measured by the Amelung coagulometer KC4A apparatus; format: functional
[16] = Anticoagulant activity of compound in respect to APTT in human poor platelet plasma (PPP) at 2992.43 nM concentration was measured by the Amelung coagulometer KC4A apparatus; format: functional
[17] = Anticoagulant activity of compound in respect to APTT in human poor platelet plasma (PPP) at 1813.59 nM concentration was measured by the Amelung coagulometer KC4A apparatus; format: functional
[18] = Anticoagulant activity of compound in respect to APTT in human poor platelet plasma (PPP) at 2901.75 nM concentration was measured by the Amelung coagulometer KC4A apparatus; format: functional
[19] = Anticoagulant activity of compound in respect to APTT in human poor platelet plasma (PPP) at 906.8 nM concentration was measured by the Amelung coagulometer KC4A apparatus; format: functional
[20] = Anticoagulant activity of compound in respect to APTT in human poor platelet plasma (PPP) at 2266.99 nM concentration was measured by the Amelung coagulometer KC4A apparatus; format: functional
[21] = Anticoagulant activity of compound in respect to APTT in human poor platelet plasma (PPP) at 2720.39 nM concentration was measured by the Amelung coagulometer KC4A apparatus; format: functional
[22] = Anticoagulant activity of compound in respect to APTT in human poor platelet plasma (PPP) at 1785.28 nM concentration was measured by the Amelung coagulometer KC4A apparatus; format: functional
[23] = Anticoagulant activity of compound in respect to APTT in human poor platelet plasma (PPP) at 1562.12 nM concentration was measured by the Amelung coagulometer KC4A apparatus; format: functional
[24] = Anticoagulant activity of compound in respect to APTT in human poor platelet plasma (PPP) at 1338.96 nM concentration was measured by the Amelung coagulometer KC4A apparatus; format: functional
Homo sapiens = species: Homo sapiens; assay: Anticoagulant activity of compound in respect to APTT in human poor platelet plasma (PPP) at a concentration 41.89(nM) of was measured by the Amelung coagulometer KC4A apparatus; format: functional, cell-free
[25] = Anticoagulant activity of compound in respect to APTT in human poor platelet plasma (PPP) at a concentration 272.29(nM) of was measured by the Amelung coagulometer KC4A apparatus; format: functional
[26] = Anticoagulant activity of compound in respect to APTT in human poor platelet plasma (PPP) at a concentration 523.64(nM) of was measured by the Amelung coagulometer KC4A apparatus; format: functional
[27] = Anticoagulant activity of compound in respect to APTT in human poor platelet plasma (PPP) at 418.91 nM concentration was measured by the Amelung coagulometer KC4A apparatus; format: functional
[28] = Anticoagulant activity of compound in respect to APTT in human poor platelet plasma (PPP) at a concentration 802.24(nM) of was measured by the Amelung coagulometer KC4A apparatus; format: functional

Compound: CC(C)C[C@H](NC(=O)[C@H](CCCCN)NC(=O)[C@H](CCCN=C(N)N)NC(=O)[C@H](CCCCN)NC(=O)[C@@H]1CCCN1C(=O)[C@@H](N)CCCN)C(=O)N[C@H](C(=O)N1CCC[C@H]1C(N)=O)C(C)C (H-[Orn]PKRKLVP-NH2) [listing 1 of 2 here]
- IC50 [1]: 705 nM

Compound: CC(C)C[C@H](NC(=O)[C@H](CCCCN)NC(=O)[C@H](CCCN=C(N)N)NC(=O)[C@H](CCCCN)NC(=O)[C@@H]1CCCN1C(=O)[C@@H](N)CCCN)C(=O)N[C@H](C(=O)N1CCC[C@H]1C(N)=O)C(C)C (H-[Orn]PKRKLVP-NH2) [listing 2 of 2 here]
- APTT [2]: 29.3 s
- APTT [3]: 53.3 s
- APTT [4]: 0.5 s

Compound: CC(C)C[C@H](NC(=O)[C@H](CCCCN)NC(=O)[C@H](CCCN=C(N)N)NC(=O)[C@H](CCCCN)NC(=O)[C@@H]1CCCN1C(=O)[C@@H](N)CCCN)C(=O)N[C@H](C(=O)N1CCC[C@H]1C(=O)O)C(C)C (H-[Orn]PKRKLVP-OH) [listing 1 of 2 here]
- IC50 [1]: 1160 nM

Compound: CC(C)C[C@H](NC(=O)[C@H](CCCCN)NC(=O)[C@H](CCCN=C(N)N)NC(=O)[C@H](CCCCN)NC(=O)[C@@H]1CCCN1C(=O)[C@@H](N)CCCN)C(=O)N[C@H](C(=O)N1CCC[C@H]1C(=O)O)C(C)C (H-[Orn]PKRKLVP-OH) [listing 2 of 2 here]
- APTT [5]: 22.2 s
- APTT [6]: 28.5 s

Compound: H-KPKRKLVP-NH2
- IC50 [1]: 647 nM
- APTT [7]: 8.9 s
- APTT [8]: 57.9 s
- APTT [9]: 28.9 s

Compound: H-KPKRKLVP-OH
- APTT [10]: 30 s
- APTT [11]: 6.7 s
- APTT [12]: 21.6 s
- IC50 [1]: 1120 nM
- APTT [13]: 24.1 s
- APTT [14]: 50.9 s
- APTT [15]: 122.8 s

Compound: H-PKRKLVP-NH2 [listing 1 of 2 here]
- IC50 [1]: 2900 nM

Compound: H-PKRKLVP-NH2 [listing 2 of 2 here]
- APTT [16]: 32.4 s
- APTT [17]: 18.6 s
- APTT [18]: 29.8 s
- APTT [19]: 8.8 s
- APTT [20]: 18.8 s
- APTT [21]: 25.5 s

Compound: H-PKRKLVP-OH [listing 1 of 2 here]
- IC50 [1]: 1560 nM

Compound: H-PKRKLVP-OH [listing 2 of 2 here]
- APTT [22]: 47.1 s
- APTT [23]: 31 s
- APTT [24]: 22.1 s

Compound: H-RPKLVP-OH
- APTT (Homo sapiens): No activity
- IC50 [1]: 802 nM
- APTT [25]: 3.8 s
- APTT [26]: 15.6 s
- APTT [27]: 5.5 s
- APTT [28]: 62.4 s

— ChEMBL document CHEMBL1141046, “Design, synthesis and structure-activity relationship of a series of fragment analogues of antistasin (ATS) and ghilantens (GLS)” (Bioorg Med Chem Lett, 2005)
